From ChEMBL document CHEMBL5214955, “Design, synthesis and activity evaluation of Hedgehog inhibitor Itraconazole derivatives in A549 cells” (Bioorg Med Chem Lett, 2022)
The source made the active and inactive calls. No cut-off for these calls is given here.

What was measured:
[1] = Cytotoxicity against human L02 cells assessed as inhibition of cell proliferation incubated for 48 hrs by MTT assay; format: toxicity, cell-based
A549 [2] = assay: Antiproliferative activity against human A549 cells assessed as inhibition of cell proliferation incubated for 48 hrs by MTT assay; format: functional, cell-based; details: A549, 48 h
HepG2 = assay: Antiproliferative activity against human HepG2 cells assessed as inhibition of cell proliferation incubated for 48 hrs by MTT assay; format: functional, cell-based; details: HepG2, 48 h
[3] = Inhibition of hedgehog signalling pathway in human A549 cells assessed as reduction in Gli gene expression incubated for 24 hrs by qPCR analysis; format: cell-based; details: A549, 24 h
A549 [4] = assay: Induction of intracellular reactive oxygen species production in human A549 cells assessed as increase in number ROS positive cells at 30 uM and measured after 24 hrs by H2DCFH-DA staining based flow cytometric analysis (Rvb=1.10%); format: functional
A549 [5] = assay: Induction of apoptosis in human A549 cells assessed as necrotic cells at 30 uM incubated for 24 hrs by Annexin V-FITC/PI staining based flow cytometric analysis (reference value: 0.084%); format: functional
A549 [6] = assay: Induction of intracellular reactive oxygen species production in human A549 cells assessed as increase in number ROS positive cells at 30 uM and measured after 4 hrs by DCFH-DA probe based confocal microscopy; format: functional, cell-based
A549 [7] = assay: Induction of apoptosis in human A549 cells assessed as viable cells at 30 uM incubated for 24 hrs by Annexin V-FITC/PI staining based flow cytometric analysis (reference value: 98.2%); format: functional; details: read-out: Activity
A549 [8] = assay: Induction of mitochondrial membrane potential loss in human A549 cells assessed as assessed as proportion of MMP decreased cells at 30 uM and measured after 4 hrs by JC-1 staining based flow cytometry assay; format: functional, cell-based
A549 [9] = assay: Induction of apoptosis in human A549 cells assessed as late apoptotic cells at 30 uM incubated for 24 hrs by Annexin V-FITC/PI staining based flow cytometric analysis (reference value: 1.40%); format: functional
A549 [10] = assay: Induction of mitochondrial membrane potential loss in human A549 cells assessed as assessed as proportion of MMP decreased cells at 30 uM and measured after 24 hrs by JC-1 staining based flow cytometry assay (reference value: 7.50%); format: functional; design: scale not given: the % may be the effect or the level left
A549 [11] = assay: Antiproliferative activity against human A549 cells assessed as inhibition of clone formation at 10 uM incubated for 1 day followed by culture in new medium for 7 days by crystal violet staining based assay relative to control; format: functional; design: scale not given: the % may be the effect or the level left; details: time 8 day
A549 [12] = assay: Induction of apoptosis in human A549 cells assessed as early apoptotic cells at 30 uM incubated for 24 hrs by Annexin V-FITC/PI staining based flow cytometric analysis (reference value: 0.316%); format: functional
A549 [13] = assay: Induction of intracellular reactive oxygen species production in human A549 cells assessed as increase in number ROS positive cells at 30 uM and measured after 4 hrs by H2DCFH-DA staining based flow cytometric analysis; format: functional, cell-based

Row | SMILES | IC50 at 48 h [1] | IC50 (A549 [2]) | IC50 (HepG2) | IC50 [3] | Activity (A549 [4]) | Activity (A549 [5]) | Activity (A549 [6]) | viability at 30 µM (A549 [7]) | Activity (A549 [8]) | Activity (A549 [9]) | Activity (A549 [10]) | Activity (A549 [11]) | Activity (A549 [12]) | Activity (A549 [13])
1 | O=C(Nc1ccc(N2CCN(c3ccc(OC[C@@H]4CO[C@@](Cn5cncn5)(c5ccc(Cl)cc5Cl)O4)cc3)CC2)cc1)c1ccco1 | > 50 µM | 10.5 µM | 22.3 µM | – | – | – | – | – | – | – | – | – | – | –
2 | Cc1ccc(C(=O)Nc2ccc(N3CCN(c4ccc(OC[C@@H]5CO[C@@](Cn6cncn6)(c6ccc(Cl)cc6Cl)O5)cc4)CC3)cc2)o1 | > 50 µM | 4.75 µM | 8.7 µM | – | – | – | – | – | – | – | – | – | – | –
3 | O=C(Nc1ccc(N2CCN(c3ccc(OC[C@@H]4CO[C@@](Cn5cncn5)(c5ccc(Cl)cc5Cl)O4)cc3)CC2)cc1)c1ccc(F)c(F)c1 | > 50 µM | 8.69 µM | 19.9 µM | 844 nM | – | – | – | – | – | – | – | – | – | –
4 | O=C(Nc1ccc(N2CCN(c3ccc(OC[C@@H]4CO[C@@](Cn5cncn5)(c5ccc(Cl)cc5Cl)O4)cc3)CC2)cc1)c1cccs1 | > 50 µM | 4.33 µM | 9.77 µM | – | – | – | – | – | – | – | – | – | – | –
5 | O=C(CC1CCOCC1)Nc1ccc(N2CCN(c3ccc(OC[C@@H]4CO[C@@](Cn5cncn5)(c5ccc(Cl)cc5Cl)O4)cc3)CC2)cc1 | > 50 µM | 10 µM | 21.1 µM | – | – | – | – | – | – | – | – | – | – | –
6 | O=C(Cc1cccs1)Nc1ccc(N2CCN(c3ccc(OC[C@@H]4CO[C@@](Cn5cncn5)(c5ccc(Cl)cc5Cl)O4)cc3)CC2)cc1 | > 50 µM | 2.13 µM | 5.05 µM | 251 nM | 53% | 1.89% | Active | 44.5% | Active | 46.1% | 44.9% | 28% | 7.54% | Active
7 | O=C(CCCc1ccccc1)Nc1ccc(N2CCN(c3ccc(OC[C@@H]4CO[C@@](Cn5cncn5)(c5ccc(Cl)cc5Cl)O4)cc3)CC2)cc1 | > 50 µM | 3.78 µM | 10.8 µM | 782 nM | – | – | – | – | – | – | – | – | – | –
8 | CCC(=O)Nc1ccc(N2CCN(c3ccc(OC[C@@H]4CO[C@@](Cn5cncn5)(c5ccc(Cl)cc5Cl)O4)cc3)CC2)cc1 | > 50 µM | 2.55 µM | 5.46 µM | 873 nM | – | – | – | – | – | – | – | – | – | –
9 | O=C(CCc1ccccc1)Nc1ccc(N2CCN(c3ccc(OC[C@@H]4CO[C@@](Cn5cncn5)(c5ccc(Cl)cc5Cl)O4)cc3)CC2)cc1 | > 50 µM | 2.06 µM | 5.34 µM | 89 nM | 62.9% | 1.07% | Active | 34.7% | Active | 51.8% | 55.4% | 22% | 12.4% | Active
10 | CCC(C)n1ncn(-c2ccc(N3CCN(c4ccc(OCC5COC(Cn6cncn6)(c6ccc(Cl)cc6Cl)O5)cc4)CC3)cc2)c1=O (stereo unspecified) [ITRACONAZOLE] | > 50 µM | 3 µM | 7.87 µM | 125 nM | 38.3% | 3.84% | – | 53.9% | – | 34.6% | 36.3% | 34% | 7.65% | –
11 | O=C(Nc1ccc(N2CCN(c3ccc(OC[C@@H]4CO[C@@](Cn5cncn5)(c5ccc(Cl)cc5Cl)O4)cc3)CC2)cc1)c1cccc(F)c1 | > 50 µM | 6.64 µM | 10.8 µM | – | – | – | – | – | – | – | – | – | – | –
12 | CCCCC(=O)Nc1ccc(N2CCN(c3ccc(OC[C@@H]4CO[C@@](Cn5cncn5)(c5ccc(Cl)cc5Cl)O4)cc3)CC2)cc1 | > 50 µM | 5.34 µM | 14.1 µM | – | – | – | – | – | – | – | – | – | – | –
13 | CCCC(=O)Nc1ccc(N2CCN(c3ccc(OC[C@@H]4CO[C@@](Cn5cncn5)(c5ccc(Cl)cc5Cl)O4)cc3)CC2)cc1 | > 50 µM | 2.99 µM | 9.93 µM | – | – | – | – | – | – | – | – | – | – | –
14 | O=C(CCCCc1ccccc1)Nc1ccc(N2CCN(c3ccc(OC[C@@H]4CO[C@@](Cn5cncn5)(c5ccc(Cl)cc5Cl)O4)cc3)CC2)cc1 | > 50 µM | 2.61 µM | 7.01 µM | 457 nM | – | – | – | – | – | – | – | – | – | –
